Experimental data reported in patent US20110003314A1, “Hapten, Immunogens and Derivatives of Ascomycin Useful for Preparation of Antibodies and Immunoassays” (MICROGENICS CORPORATION, priority 2004, published 2011).

Assays:
[1] = tested on: monoclonal antibody produced by hybridoma line 28E2; assay: CEDIA tacrolimus assay specificity (cross-reactivity); type: binding, mice; conditions: for Concentration Measured: added to whole blood, concentration tested 20 ng/ml
Method: Antibodies obtained using any of the aforementioned techniques are screened or purified not only for their ability to bind specifically with tacrolimus, but also for low cross-reactivity with potential interfering substances. “Cross reactivity” is determined in a quantitative immunoassay by establishing a standard curve using known dilutions of tacrolimus or ascomycin. […] The percent (%) cross-reactivity is the measured concentration divided by the tested concentration multiplied by 100.
If tacrolimus is present in the sample, it binds to the antibody, leaving the ED portion of the competing conjugate free to restore enzyme activity upon complementation reaction with enzyme acceptor (EA) fragments in the assay reaction mixture. The active enzyme is then capable of producing a quantifiable reaction product when exposed to appropriate substrate. If drug is not present in the sample, the antibody binds to the ED-drug conjugate inhibiting association of the ED fragments with the EA fragments, thus inhibiting restoration of enzyme activity. The amount of reaction product and resultant absorbance change are proportional to the amount of drug in the sample.
Each of four naturally occurring metabolites of tacrolimus, at a concentration of approximately 20 ng/ml, was added separately to a whole blood specimen. […] The cross reactivity of the metabolites was calculated as:
(measured concentration)/20ng/ml×100%
In another experiment, commonly co-administered immunosuppressants were added to whole blood and tested for cross-reactivity.

[2] = tested on: antibodies that bind rapamycin; conditions: taught by Sedrani et al.; cited from earlier work
[3] = tacrolimus metabolites, 20 ng/ml in whole blood, (measured concentration)/20 ng/ml x 100%
[4] = other immunosuppressants in whole blood, tested concentration 100,000 ng/ml

Compound	Concentration Measured [1]	% Cross-Reactivity [1, 3]	% Cross-Reactivity [1, 4]	cross-reactivity of rapamycin-binding antibodies [2]
C=CCC1C=C(C)CC(C)CC(OC)C2OC(O)(C(=O)C(=O)N3CCCCC3C(=O)OC(C(C)=CC3CCC(O)C(O)C3)C(C)C(O)CC1=O)C(C)CC2O (stereo not drawn) [13,31-O-didemethyl-T, 13,31-O-didemethyl tacrolimus]	0.57 ng/mL	2.9%		
C=CCC1C=C(C)CC(C)CC(OC)C2OC(O)(C(=O)C(=O)N3CCCCC3C(=O)OC(C(C)=CC3CCC(O)C(OC)C3)C(C)C(O)CC1=O)C(C)CC2O (stereo not drawn) [13-O-demethyl-T, 13-O-demethyl tacrolimus]	7.5 ng/mL	37.7%		
C=CCC1C=C(C)CC(C)CC(O)C2OC(O)(C(=O)C(=O)N3CCCCC3C(=O)OC(C(C)=CC3CCC(O)C(OC)C3)C(C)C(O)CC1=O)C(C)CC2OC (stereo not drawn) [15-O-demethyl-T, 15-O-demethyl tacrolimus]	0.95 ng/mL	4.7%		
C=CCC1C=C(C)CC(C)CC(OC)C2OC(O)(C(=O)C(=O)N3CCCCC3C(=O)OC(C(C)=CC3CCC(O)C(O)C3)C(C)C(O)CC1=O)C(C)CC2OC (stereo not drawn) [31-O-demethyl-T, 31-O-demethyl tacrolimus]	0.98 ng/mL	4.9%		
C[C@]12CCC(=O)C=C1CC[C@@H]1[C@@H]2[C@@H](O)C[C@@]2(C)[C@H]1CC[C@]2(O)C(=O)CO [Hydrocorticol]			0.0%	
COc1c(C)c2c(c(O)c1C/C=C(\C)CCC(=O)O)C(=O)OC2 [Mycophenolic acid]			0.0%	
C[C@]12C=CC(=O)C=C1CC[C@@H]1[C@@H]2[C@@H](O)C[C@@]2(C)[C@H]1CC[C@]2(O)C(=O)CO [Prednisolone]			0.0%	
C[C@]12C=CC(=O)C=C1CC[C@@H]1[C@@H]2C(=O)C[C@@]2(C)[C@H]1CC[C@]2(O)C(=O)CO [Prednisone]			0.0%	
C=CC[C@@H]1/C=C(\C)C[C@H](C)C[C@H](OC)[C@H]2O[C@@](O)(C(=O)C(=O)N3CCCC[C@H]3C(=O)O[C@H](/C(C)=C/[C@@H]3CC[C@@H](O)[C@H](OC)C3)[C@H](C)[C@@H](O)CC1=O)[C@H](C)C[C@@H]2OC [tacrolimus]	20.0 ng/mL	100.0%		greater than 50%
